Where “and” joins values, the source holds several entries; their conditions need not be identical. Identical values can stand only once. Like-named read-outs stand apart in the source and are kept apart here.
What was measured:
[1] = Incubation of MPZ with pooled human liver microsomes (disappearance, metabolite formation); type: in vitro ADME; details: for Peak area at time 0 / Peak area at time 90 min: metopimazine incubation in human liver microsomes, full scan LC–MS
Method: To conduct the metabolic incubation in liver microsomes in the linear range, protein concentration and the reaction time were optimized.
PAR was also used for all positive control compounds.
The degree of disappearance of each analyte was evaluated by comparing the PAR of analyte to IS or concentration in different sampling time points to the PAR of time zero, (t = 0, 100%). The percent of parent remaining values were calculated according to the following equation: %parentremaining=(meanconcentrationorPARateachsamplingtimepoint/meanconcentrationorPARoftimezero)×100

[2] = Dog PK study, single oral dose of metopimazine; type: in vivo, beagle dogs; details: beagle, plasma; Dog (male), 10 mg/kg metopimazine single oral dose, mean (SD)
Method: The pharmacokinetics of metopimazine (parent) and metopimazine acid (metabolite) were evaluated in three male, beagle dogs following a single oral dose of 10 mg/kg metopimazine (free base). The dogs were obtained from Marshall BioResources. Animals were weighed prior to each dose administration for the purpose of dose calculation. Metopimazine was administered in size 13 gelatin capsules. Whole venous blood samples of approximately 1.0 ml were collected from a peripheral vein of all animals for determination of metopimazine and metopimazine acid. Samples were collected at the following timepoints: 0.25, 0.5, 1, 2, 4, 8, 12, and 24 h after test article administration. All animals were sampled at each timepoint. Samples were collected in tubes containing K2EDTA and placed on ice until processed for plasma by centrifugation under refrigeration for at least 10 min at 1912 x g. After centrifugation, the supernatant was removed and stored frozen in a −70°C freezer until analyzed by LC–MS/MS.
(§1) An MRM LC–MS/MS method was developed for MPZ and metopimazine acid (MPZA) in rat, dog, and human plasma. The method was run in reverse phase in positive ion mode. […] D6‐isotopically labeled internal standards were used for each analyte. The following m/z transitions were monitored: metopimazine 446.3 → 141.1 and metopimazine acid 447.2 → 142.1.
(§2) Noncompartmental Pharmacokinetics analysis was performed in Phoenix 64 Winnonlin version 8.1.

[3] = Rat PK study, single oral dose of metopimazine; type: in vivo, Sprague Dawley rats; details: Sprague Dawley, plasma, 45 mg/kg metopimazine single oral dose, mean (SD)
Method: The pharmacokinetics of metopimazine (parent) and metopimazine acid (metabolite) were evaluated in male and female Sprague Dawley rats following a single oral dose of 45 mg/kg metopimazine (free base). Three animals per sex in each dose group were sampled at each timepoint after administration (0.25, 0.5, 1, 2, 4, 8, 12, and 24 h). The rats (rattus norvegicus) were obtained from Envigo RMS, Inc. and were 2 months old. Animals were weighed prior to each dose administration for the purpose of dose calculation. Whole venous blood samples of approximately 0.5 ml were collected from a peripheral vein of animals for determination of exposure to metopimazine and metopimazine acid. Three animals per sex were sampled at each timepoint. Samples were collected in tubes containing K2EDTA with protease inhibitor cocktail (Sigma, # P8340, at ratio 1:100) and placed on ice until processed for plasma by centrifugation under refrigeration for at least 10 min at 1912 x g. After centrifugation, supernatant was removed and stored frozen in a −70°C freezer until analyzed by LC–MS/MS.
as §1, §2

[4] = Clinical study NG100-101: plasma pharmacokinetics of metopimazine and metabolites after a single oral 60 mg dose; type: in vivo, healthy adult subjects (human); details: for % Drug‐related material MPZ / % Drug‐related material MPZA: based on AUClast; for % Drug‐related material MPZ / percent of total circulating drug‐related material / % Drug‐related material MPZA: single 60 mg dose; for Tmax / AUC(0-t) / Cmax: both sexes, human, po, 60 mg; for percent of total circulating drug‐related material: rough estimate based on AUClast
Method: The clinical study was conducted at Biotrial Rennes, in accordance with the Declaration of Helsinki. The study (NG100‐101) was a double‐blind, placebo‐ controlled, ascending single‐ and multiple‐dose study of the safety, tolerability, and pharmacokinetics of metopimazine administered orally to healthy adult subjects. The study protocol, informed consent form, and appropriate related documents were approved by the institutional review board, and all subjects provided written informed consent prior to participation in the study. […] In the morning, after at least 10 h of fasting overnight, eight healthy adult subjects (male or female aged 18 to 45), were orally administered metopimazine (or a matching placebo). […] Blood samples were collected at the following time points: predose and 0.25, 0.5, 0.75, 1, 1.25, 1.5, 2, 3, 4, 6, 8, 12, 18, and 24 h postdose; plasma samples were obtained by centrifugation of the blood samples. A comprehensive safety and pharmacokinetic analysis was performed for each cohort for the SAD and MAD parts of the study and will be presented elsewhere. A fit‐for‐purpose discovery method was used to analyze 4 subjects from the highest single dosed cohort for the presence of metabolites. Plasma concentrations of metopimazine, metopimazine acid and metopimazine sulfoxide were quantified using LC–MS/MS methods. Venous blood samples (6 ml) for the determination of plasma concentrations of MPZ and metabolites (MPZA and MPZS) were drawn by direct venipuncture or via an intravenous catheter into K2EDTA Vacutainer® tubes. It was important to avoid hemolysis during blood collection. After collection, the blood samples were centrifuged within 60 min, at 3000 rotations per minute for 10 min at 5°C. The resulting plasma was separated into 2 equal aliquots of 1000 µl (aliquots A & B) and transferred to polypropylene tubes, which were labeled, frozen within 120 min of blood collection and stored at –70°C until required for bioanalysis. Immediately prior to bioanalysis, samples were thawed and a 200 µl aliquots were removed and analytes extracted using acetonitrile protein precipitation. The extracted samples were analyzed twice, once for quantification of MPZ and MPZA and again for MPZS quantification as described below. An MRM LC–MS/MS method was developed for MPZ and metopimazine acid (MPZA) in rat, dog, and human plasma. The method was run in reverse phase in positive ion mode. […] D6‐isotopically labeled internal standards were used for each analyte. The following m/z transitions were monitored: metopimazine 446.3 → 141.1 and metopimazine acid 447.2 → 142.1. […] An MRM LC–MS/MS method was developed to look for metopimazine sulfoxide (MPZS) in human plasma. The method was run in reverse phase in positive ion mode. The system was identical to what was described above except that a slightly longer column was used, a Supelco Discovery HS F5 100 × 4.0 mm (3 µm) column (Sigma‐Aldrich). A D6‐isotopically labeled internal standards was used for MPS and the m/z transition monitored was 462.3 → 98.1. A calibration curve was generated for the quantification of MPZS in human plasma. Noncompartmental Pharmacokinetics analysis was performed in Phoenix 64 Winnonlin version 8.1.

[5] = cited from earlier work
[6] = plasma, individual subjects, single oral 60 mg MPZ dose

SMILES | Peak area at time 0 [1] | Peak area at time 90 min [1] | AUC(0-inf) [2] [ng·h/mL] | Cmax [2] [ng/mL] | Tmax [2] [h] | AUC(0-inf) ([3]; Rat (female)) [ng·h/mL] | Cmax ([3]; Rat (female)) [ng/mL] | Tmax ([3]; Rat (female)) [h] | AUC(0-inf) ([3]; Rat (male)) [ng·h/mL] | Cmax ([3]; Rat (male)) [ng/mL] | Tmax ([3]; Rat (male)) [h] | percent of total circulating drug‐related material [4] | further results
CS(=O)(=O)c1ccc2c(c1)N(CCCN1CCC(C(N)=O)CC1)c1ccccc1S2 [MPZ, metopimazine] | 2373 | 715 | 2600 | 416 | 0.83 | 13900 | 1730 | 4 | 8170 | 1080 | 4 | less than 10% | percent of parent remaining ([1]; 1 µM MPZ, HLM 0.5 mg/ml protein, NADPH, 60 min): 37.2%; % Drug‐related material MPZ ([4]; individual subjects): 6.5% and 9.9% and 6.2% and 6.8%; % Drug‐related material MPZ ([4]; mean of 4 subjects): 7.4%; Tmax ([4]; plasma, plasma, individual subjects, single oral 60 mg MPZ dose, read-out: MPZ T max): 3 h; AUC(0-t) ([4]; plasma, plasma, mean of 4 subjects, single oral 60 mg MPZ dose, read-out: MPZ AUClast): 172 ng·h/mL; Cmax ([4]; plasma, plasma, mean of 4 subjects, single oral 60 mg MPZ dose, read-out: MPZ C max): 93.9 ng/mL; Tmax ([4]; plasma, plasma, mean of 4 subjects, single oral 60 mg MPZ dose, read-out: MPZ T max): 1.4 h; MPZ AUClast [4, 6]: 111.9 ng‐h/ml and 278.2 ng‐h/ml and 129.4 ng‐h/ml and 167.5 ng‐h/ml; MPZ C max [4, 6]: 38.9 ng/mL and 203 ng/mL and 75.6 ng/mL and 58.2 ng/mL; MPZ T max [4, 6]: 45 min and 60 min; blood–brain barrier penetration [5]: does not penetrate the blood–brain barrier; absolute bioavailability ([5]; humans, 10 mg dose of MPZ): under 20%
CS(=O)(=O)c1ccc2c(c1)N(CCCN1CCC(C(=O)O)CC1)c1ccccc1S2 [MPZA, metopimazine acid] | 0 | 208 | 728 | 103 | 2 | 884 | 110 | 3 | 755 | 89 | 4 | approximately 90% | % Drug‐related material MPZA ([4]; individual subjects): 93.0% and 89.2% and 93.3% and 92.4%; % Drug‐related material MPZA ([4]; mean of 4 subjects): 92.0%; Tmax ([4]; plasma, 4 subjects, single oral 60 mg MPZ dose, read-out: Tmax, range over subjects): 1.25 to 3 h; AUC(0-t) ([4]; plasma, plasma, individual subjects, single oral 60 mg MPZ dose, read-out: MPZA AUClast): 1590 ng·h/mL; AUC(0-t) ([4]; plasma, plasma, mean of 4 subjects, single oral 60 mg MPZ dose, read-out: MPZA AUClast): 2080 ng·h/mL; Cmax ([4]; plasma, plasma, mean of 4 subjects, single oral 60 mg MPZ dose, read-out: MPZA C max): 397 ng/mL; Tmax ([4]; plasma, plasma, mean of 4 subjects, single oral 60 mg MPZ dose, read-out: MPZA T max): 1.8 h; MPZA AUClast [4, 6]: 2506.1 ng‐h/ml and 1941.9 ng‐h/ml and 2265.8 ng‐h/ml; MPZA C max [4, 6]: 241 ng/mL and 601 ng/mL and 357 ng/mL and 390 ng/mL; MPZA T max [4, 6]: 3 h and 1.25 h (2×) and 1.5 h; share of circulating drug‐related material in plasma ([5]; clinical doses of 20 and 50 mg MPZ, single dose, preprandially or postprandially): ≥ 80%; share of circulating drug‐related material based on AUC exposure ([5]; humans): over 90%

— article PMC8929364, “Metopimazine is primarily metabolized by a liver amidase in humans” (Pharmacology Research & Perspectives, 2021)
